Experiments:
A431 epidermoid = assay: Sulphorodamine B test at single concentration, A431; type: cell-based; conditions: Homo sapiens, A-431; 500 nM, 72 h
Description: (§1) The antiproliferative activity of novel Hsp90 inhibitors was also evaluated on various cancerous cell lines by means of the sulphorodamine B test (i.e., NCI-H460 non-small cell lung carcinoma, A431 epidermoid, A2780 ovarian, MDA-MB436 triple-negative breast, U87MG glioblastoma, A498 renal, HCT116 colon, MeWo melanoma, MiaPaCa2 pancreas, HeLa cervix uteri, NB4 promyelocytic leukemia). NCI-H460, A431, MDA-MB436, A2780, A498, HeLa, NB4 tumour cells were grown in RPMI 1640 containing 10% fetal bovine serum (i.e., FBS from GIBCO), L-glutamine, and 50 μg/ml gentamycin sulfate.
(§2) All cell lines were maintained in a 37° C. incubator with saturated humidity and an atmosphere containing 95% air and 5% CO2, and were sub-cultured every 2-3 days. Tumour cells were seeded in 96-well tissue culture plates at approximately 10% confluence and were allowed to attach and recover for 24 h.
(§3) Varying concentrations of the drugs were then added to each well to calculate their IC50 value (the concentration which inhibits the 50% of cell survival). The plates were incubated at 37° C. for 72 h. At the end of the treatment, the plates were washed by remotion of the supernatant and addition of PBS 3 times. 200 μl PBS and 50 μl of cold 80% trichloroacetic acid (TCA) were added. The plates were incubated on ice for at least 1 h. TCA was removed, the plates were washed 3 times by immersion in distilled-water and dried on paper and at 40° C. for […]. Then 200 μl of 0.4% sulphorodamine B in 1% acetic acid were added. The plates were incubated at room temperature for 30 min. Sulphorodamine B was removed, the plates were washed by immersion in 1% acetic acid for 3 times, then they were dried on paper and at 40° C. for 5 min. Then, 200 μl Tris 10 mM were added, the plates were kept under stirring for 20 min. The cell survival was determined as optical density by a Multiskan […] at 540 nm. The amount of cells killed was calculated as the percentage decrease in sulphorodamine B binding compared with control cultures.
(§4) The other cell lines were screened against one single concentration of the various inhibitors (i.e., 500 nM), all experiments being made in octuplicate, following the protocol described at example 35. Since NB4 cell line was grown in suspension, a further step of centrifugation (i.e., 1600 g for 10 min) was added after the 72 hour incubation period.

A2780 ovarian = assay: Sulphorodamine B test at single concentration, A2780; type: cell-based; conditions: Homo sapiens, 500 nM, 72 h
Description: as §1, §2, §3, §4

MiaPaCa2 pancreas = assay: Sulphorodamine B test at single concentration, MiaPaCa2; type: cell-based; conditions: Homo sapiens, MIA PaCa-2; 500 nM, 72 h
Description: as §1
MiaPaCa2 cells were cultured in DMEM medium containing 10% FBS, L-glutamine, and 50 μg/ml gentamycin sulfate.
as §2, §3, §4

HeLa cervix uteri = assay: Sulphorodamine B test at single concentration, HeLa; type: cell-based; conditions: Homo sapiens, 500 nM, 72 h
Description: as §1, §2, §3, §4

[1] = test system: MDA-MB436 triple-negative breast; assay: Sulphorodamine B test at single concentration, MDA-MB436; type: cell-based; conditions: Homo sapiens, MDA-MB-436; 500 nM, 72 h
Description: as §1, §2, §3, §4

HCT116 colon = assay: Sulphorodamine B test at single concentration, HCT116; type: cell-based; conditions: Homo sapiens, HCT-116; 500 nM, 72 h
Description: as §1
HCT116 cells were cultured in McCoy's medium containing 10% FBS, L-glutamine, and 50 μg/ml gentamycin sulfate.
as §2, §3, §4

[2] = test system: NB4 promyelocytic leukemia; assay: Sulphorodamine B test at single concentration, NB4; type: cell-based; conditions: 500 nM, 72 h, suspension cells
Description: as §1, §2, §3, §4

U87MG glioblastoma = assay: Sulphorodamine B test at single concentration, U87MG; type: cell-based; conditions: Homo sapiens, U-87 MG; 500 nM, 72 h
Description: as §1
(§5) MeWo and U87-MG cells were cultured in Eagle's Minimum Essential Medium (i.e., EMEM) containing 10% FBS, L-glutamine, 1 mM sodium pyruvate, 0.1 mM non-essential amino acids, 1.5 g/l sodium bicarbonate, and 50 μg/ml gentamycin sulphate.
as §2, §3, §4

Hsp90 = molecular target: T1, Hsp90 (Homo sapiens, UniProt P07900); assay: Fluorescence Polarization (FP) binding, GM-BODIPY displacement from Hsp90; conditions: GM-BODIPY tracer, 4° C. for 4 hours
T1 construct: purchased Stressgen SPP-776
Description: GM-BODIPY (PerkinElmer, CUSN60342000MG) was previously dissolved in DMSO to obtain 10 mM stock solutions and kept at −20° C. until use.
Hsp90 (Stressgen, SPP-776), was previously dissolved in assay buffer (HFB) to form 2.2 μM stock solutions and kept at −80° C. until use.
The compounds were previously dissolved in DMSO to obtain stock solutions and kept at −20° C. The day of experiment, the compounds were prepared by serial dilutions in assay buffer (HFB) containing 20 mM HEPES (K) pH 7.3, 50 mM KCl, 5 mM MgCl2, 20 mM Na2MoO4 and 0.01% NP40. Before each use, 0.1 mg/ml Bovine Gamma globulin and 2 mM DTT were freshly added.
Fluorescence Polarization (FP) was performed in Opti-Plate™-96F well plates (Perkin Elmer, Zaventem, Belgium) using a plate reader (Wallac Envision 2101 multilabel reader, Perkin Elmer, Zaventem, Belgium). To evaluate the binding affinity of the molecules, 50 μl of the GM-BODIPY solution (100 nM) were added to 125 nM of Hsp90 in the presence of 5 μl of the test compounds at increasing concentrations. The plate was mixed on a shaker at 4° C. for 4 hours, and the FP values in mP (millipolarization units) were recorded. The IC50 values were calculated as the inhibitor concentration where 50% of the tracer is displaced; each data point is the result of the average of triplicate wells, and was determined from a plot using nonlinear least-squares analysis. Curve fitting was performed using
Prism GraphPad software program (GraphPad software, Inc., San Diego, Calif.).

A498 renal = assay: Sulphorodamine B test at single concentration, A498; type: cell-based; conditions: Homo sapiens, 500 nM, 72 h
Description: as §1, §2, §3, §4

[3] = test system: NCI-H460 non-small cell lung carcinoma; assay: Cytotoxicity assay, sulphorodamine B test, NCI-H460; type: cell-based; conditions: Homo sapiens, NCI-H460; 72 h, sulphorodamine B
Description: as §1, §2, §3

MeWo melanoma = assay: Sulphorodamine B test at single concentration, MeWo; type: cell-based; conditions: Homo sapiens, 500 nM, 72 h
Description: as §1, §5, §2, §3, §4

SMILES | inhibition at 0.5 µM (A431 epidermoid) | inhibition at 0.5 µM (A2780 ovarian) | inhibition at 0.5 µM (MiaPaCa2 pancreas) | inhibition at 0.5 µM (HeLa cervix uteri) | inhibition at 0.5 µM [1] | inhibition at 0.5 µM (HCT116 colon) | inhibition at 0.5 µM [2] | inhibition at 0.5 µM (U87MG glioblastoma) | IC50 (Hsp90) | inhibition at 0.5 µM (A498 renal) | IC50 [3] | inhibition at 0.5 µM (MeWo melanoma)
CCNC(=O)c1nnn(-c2cc(C(C)C)c(O)cc2O)c1-c1ccc(CN2CCCCC2CCO)cc1 (stereo not shown) [Example 8, 1-(2,4-dihydroxy-5-isopropyl-phenyl)-5-{4-[2-(2-hydroxy-ethyl)-piperidin-1-ylmethyl]-phenyl}-1H-[1,2,3]triazole-4-carboxylic acid ethylamide] | ≥ 50% | ≥ 50% | ≥ 50% | ≥ 50% | ≥ 50% | ≥ 50% | ≥ 50% | ≥ 50% | < 50 nM | 30 to 50% | 100 to 500 nM | ≥ 50%
CCNC(=O)c1nnn(-c2cc(C(C)C)c(O)cc2O)c1-c1ccc(CN2CCCCC2)cc1 [Example 9, 1-(2,4-dihydroxy-5-isopropyl-phenyl)-5-(4-piperidin-1-ylmethyl-phenyl)-1H-[1,2,3]triazole-4-carboxylic acid ethylamide] | ≥ 50% | ≥ 50% | ≥ 50% | ≥ 50% | ≥ 50% | ≥ 50% | ≥ 50% | ≥ 50% | < 50 nM | ≥ 50% | < 50 nM | ≥ 50%
CCNC(=O)c1nnn(-c2cc(C(C)C)c(O)cc2O)c1-c1ccc(CN2CCN(C)CC2)cc1 [Example 11, 1-(2,4-dihydroxy-5-isopropyl-phenyl)-5-[4-(4-methyl-piperazin-1-ylmethyl)-phenyl]-1H-[1,2,3]triazole-4-carboxylic acid ethylamide] | ≥ 50% | ≥ 50% | ≥ 50% | ≥ 50% | ≥ 50% | ≥ 50% | ≥ 50% | ≥ 50% | < 50 nM | ≥ 50% | < 50 nM | ≥ 50%
CCNC(=O)c1nnn(-c2cc(C(C)C)c(O)cc2O)c1-c1ccc(CN2CCCC2)cc1 [Example 21, 1-(2,4-dihydroxy-5-isopropyl-phenyl)-5-(4-pyrrolidin-1-ylmethyl-phenyl)-1H-[1,2,3]triazole-4-carboxylic acid ethylamide] | ≥ 50% | ≥ 50% | ≥ 50% | ≥ 50% | ≥ 50% | ≥ 50% | ≥ 50% | ≥ 50% | < 50 nM | ≥ 50% |  | ≥ 50%
CCNC(=O)c1nnn(-c2cc(C(C)C)c(O)cc2O)c1-c1ccc(Cn2ccnc2)cc1 [Example 22, 1-(2,4-dihydroxy-5-isopropyl-phenyl)-5-(4-imidazol-1-ylmethyl-phenyl)-1H-[1,2,3]triazole-4-carboxylic acid ethylamide] | ≥ 50% | ≥ 50% | ≥ 50% | ≥ 50% | ≥ 50% | ≥ 50% | ≥ 50% | ≥ 50% | < 50 nM | ≥ 50% |  | ≥ 50%

From patent publication US9302998B2, “Aryl triazole compounds with antitumoural activity” (SIGMA-TAU RESEARCH SWITZERLAND S.A., priority 2010, dated 2016)
